Columns and labels:
Type in all cases: in vivo
Parameters in all cases: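 grade 0 to 5 of growth suppression where 5 is 90% or more and 0 below 10%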
[1] = system: Echinochloa oryzicola Vasing; assay: Herbicidal effects in paddy field soil treatment (Test Example 1); conditions: paddy field soil treatment; 1000 g of the active ingredient per hectare; wettable powder added dropwise on water surface; 21st day after treatment
Experimental: (§1) Test for Herbicidal Effects in Paddy Field Soil Treatment
(§2) A 100-cm^2 plastic pot was filled with paddy field soil. After puddling and leveling, seeds of Echinochloa oryzicola Vasing, Monochoria vaginalis (Burm. f.) Presl var. plantaginea (Roxb.) Solms-Laub., and Scirpus juncoides Roxb. var. ohwianus. T. Koyama were sowed, and the soil was waterlogged to a water depth of 3 cm. On the next day, a wettable powder formulation prepared according to Preparation Example 1 was diluted with water, and was added dropwise on the water surface. The amount of application was an amount equivalent to 1000 g of the active ingredient per hectare. Thereafter, the plants were grown in a greenhouse, and on the 21st day after the treatment, the herbicidal effects were investigated according to the criteria described in Table 138.

[2] = system: Monochoria vaginalis (Burm. f.) Presl var. plantaginea (Roxb.) Solms-Laub.; assay: as above; conditions: paddy field soil treatment; 1000 g of the active ingredient per hectare; wettable powder added dropwise on water surface; 21st day after treatment
Experimental: as §1, §2

[3] = system: Scirpus juncoides Roxb. var. ohwianus. T. Koyama; assay: as above; conditions: paddy field soil treatment; 1000 g of the active ingredient per hectare; wettable powder added dropwise on water surface; 21st day after treatment
Experimental: as §1, §2

[4] = system: Abutilon theophrasti medicus; assay: Herbicidal effects in upland field foliar treatment (Test Example 3); conditions: criteria of Table 138; for herbicidal effects on Abutilon theophrasti medicus: 1000 g of the active ingredient per hectare, 14th day after the treatment, wettable powder; for herbicidal effect (index) on Abutilon theophrasti medicus: 1000 g active ingredient per hectare, 14th day after treatment
Experimental: (§3) Test Example 3 Test on Herbicidal Effects in Upland Field Foliar Treatment A 80-cm^2 plastic pot was filled with upland field soil. Seeds of Echinochloa crus-galli (L.) P. Beauv. var. crus-galli, Abutilon theophrasti medicus and Amaranthus viridis L. were sowed, and the plants were grown for two weeks in a greenhouse. A wettable powder formulation prepared according to Preparation Example 1 was diluted with water, and was sprayed with a small sprayer to perform foliar application over the entirety of plants from the upper side, in an amount equivalent to 1000 liters per hectare, such that 1000 g of the active ingredient per hectare was applied. Thereafter, the plants were grown in a greenhouse, and on the 14th day after the treatment, the herbicidal effects were investigated according to the criteria described in the Table 138 shown above.

Amaranthus viridis L. [5] = assay: as above; conditions: criteria of Table 138; for herbicidal effects on Amaranthus viridis L.: 1000 g of the active ingredient per hectare, 14th day after the treatment, wettable powder; for herbicidal effect (index) on Amaranthus viridis L.: 1000 g active ingredient per hectare, 14th day after treatment
Experimental: as §3

[6] = system: Echinochloa crus-galli (L.) P. Beauv. var. crus-galli; assay: as above; conditions: criteria of Table 138; for herbicidal effects on Echinochloa crus-galli (L.) P. Beauv. var. crus-galli: 1000 g of the active ingredient per hectare, 14th day after the treatment, wettable powder; for herbicidal effect (index) on Echinochloa crus-galli (L.) P. Beauv. var. crus-galli: 1000 g active ingredient per hectare, 14th day after treatment
Experimental: as §3

[7] = system: Abutilon theophrasti medicus; assay: Herbicidal effects in upland field soil treatment (Test Example 2); conditions: 1000 g active ingredient per hectare, 21st day after treatment, criteria of Table 138
Experimental: (§4) Test Example 2 Test on Herbicidal Effects in Upland Field Soil Treatment A 80-cm^2 plastic pot was filled with upland field soil. Seeds of Abutilon theophrasti medicus and Amaranthus viridis L. were sowed, and soil was covered. A wettable powder formulation prepared according to Preparation Example 1 was diluted with water, and was uniformly sprayed on the soil surface with a small sprayer, in an amount equivalent to 1000 liters per hectare, such that 1000 g of the active ingredient per hectare was applied. Thereafter, the plants were grown in a greenhouse, and on the 21st day after the treatment, the herbicidal effects were investigated according to the criteria described in the Table 138 shown above.

Amaranthus viridis L. [8] = assay: as above; conditions: 1000 g active ingredient per hectare, 21st day after treatment, criteria of Table 138
Experimental: as §4

| SMILES | Herbicidal effects index, Echinochloa oryzicola Vasing [1] | Herbicidal effects index, Monochoria vaginalis (Burm. f.) Presl var. plantaginea (Roxb.) Solms-Laub. [2] | Herbicidal effects index, Scirpus juncoides Roxb. var. ohwianus. T. Koyama [3] | herbicidal effects on Abutilon theophrasti medicus [4] | herbicidal effects on Amaranthus viridis L. (Amaranthus viridis L. [5]) | herbicidal effects on Echinochloa crus-galli (L.) P. Beauv. var. crus-galli [6] | herbicidal effect (index) on Abutilon theophrasti medicus [4] | herbicidal effect (index) on Amaranthus viridis L. (Amaranthus viridis L. [5]) | herbicidal effect (index) on Echinochloa crus-galli (L.) P. Beauv. var. crus-galli [6] | herbicidal effect (index) on Abutilon theophrasti medicus [7] | herbicidal effect (index) on Amaranthus viridis L. (Amaranthus viridis L. [8]) |
| --- | --- | --- | --- | --- | --- | --- | --- | --- | --- | --- | --- |
| COc1ccc(-n2c(=O)c(C(=O)C3=C(O)CCCC3=O)nc3cccc(Cl)c32)cc1 [II-197] | 5 | 5 | 5 | 4 | 5 | 5 | – | – | – | – | – |
| C#CCOc1ccc(-n2c(=O)c(C(=O)C3=C(O)CCCC3=O)nc3ccccc32)cc1 [II-84] | 5 | 5 | 5 | 4 | 5 | 4 | – | – | – | – | – |
| O=C1CCCC(O)=C1C(=O)c1nc2ccccc2n(Cc2cccc(Cl)c2)c1=O [I-112] | 5 | 5 | 5 | – | – | – | 5 | 5 | 4 | – | – |
| COc1ccc(-n2c(=O)c(C(=O)C3=C(O)CCCC3=O)nc3ccccc32)cc1F [II-178] | 4 | 5 | 5 | 5 | 5 | 5 | – | – | – | – | – |
| Cn1c(=O)c(C(=O)C2=C(O)CCCC2=O)nc2ccc(S(C)(=O)=O)cc21 [I-247] | – | – | – | – | – | – | 5 | 5 | 4 | – | – |
| O=C1CCCC(O)=C1C(=O)c1nc2ccccc2n(C2CCSC2)c1=O (stereo not shown) [I-136] | – | – | – | – | – | – | 5 | 5 | 4 | – | – |
| COc1ccc(-n2c(=O)c(C(=O)C3=C(O)CCCC3=O)nc3c(Cl)cccc32)cc1 [II-194, 5-chloro-3-(2-hydroxy-6-oxo-1-cyclohexenecarbonyl)-1-(4-methoxyphenyl)-quinoxalin-2(1H)-one] | 4 | 5 | 5 | – | – | – | – | – | – | 4 | 5 |
| COc1ccc(-n2c(=O)c(C(=O)C3=C(O)CCCC3=O)nc3c(F)cccc32)cc1 [II-186, 5-fluoro-3-(2-hydroxy-6-oxo-1-cyclohexenecarbonyl)-1-(4-methoxyphenyl)-quinoxalin-2(1H)-one] | 4 | 5 | 5 | – | – | – | – | – | – | 5 | 5 |
| COc1ccc(-n2c(=O)c(C(=O)C3=C(O)CCCC3=O)nc3c(Cl)cccc32)cc1F [II-301] | 5 | 5 | 5 | – | – | – | – | – | – | 5 | 5 |
| CSc1ccc2nc(C(=O)C3=C(O)CCCC3=O)c(=O)n(C)c2c1 [I-243] | – | – | – | – | – | – | 5 | 5 | 5 | – | – |
| Cn1c(=O)c(C(=O)C2=C(O)CCCC2=O)nc2c(Cl)cccc21 [I-223] | 4 | 5 | 5 | – | – | – | – | – | – | 5 | 5 |
| CC(C)(C)c1cc(-n2c(=O)c(C(=O)C3=C(O)CCCC3=O)nc3ccccc32)no1 [I-265] | 4 | 5 | 5 | – | – | – | – | – | – | 4 | 5 |
| CC1CC(C)C(O)=C(C(=O)c2nc3ccccc3n(-c3ccc4c(c3)OCCO4)c2=O)C1=O (stereo not shown) [II-229] | 5 | 5 | 5 | – | – | – | – | – | – | 4 | 5 |
| O=C1CCCC(O)=C1C(=O)c1nc2c(F)cccc2n(-c2ccc3c(c2)OCCO3)c1=O [II-236] | 4 | 5 | 5 | – | – | – | – | – | – | 4 | 5 |
| CN(C)C(=O)Cn1c(=O)c(C(=O)C2=C(O)CCCC2=O)nc2ccccc21 [Compound I-100] | – | – | – | – | – | – | 4 | 5 | 5 | – | – |
| Cc1ccc(-n2c(=O)c(C(=O)C3=C(O)CCCC3=O)nc3ccc(C)cc32)nc1 [I-368] | 4 | 5 | 5 | – | – | – | – | – | – | 5 | 5 |
| Cn1nc(C(F)(F)F)nc1-n1c(=O)c(C(=O)C2=C(O)CCCC2=O)nc2ccccc21 [I-165] | 5 | 5 | 5 | – | – | – | – | – | – | 5 | 5 |
| CN(C(=O)OC(C)(C)C)n1c(=O)c(C(=O)C2=C(O)CCCC2=O)nc2ccccc21 [I-278] | 4 | 5 | 5 | – | – | – | – | – | – | 5 | 5 |
| O=C1CCCC(O)=C1C(=O)c1nc2ccccc2n(COc2ccccc2)c1=O [I-57] | 4 | 5 | 5 | – | – | – | – | – | – | 4 | 5 |
